These results are taken from patent US20030219764A1, “Biological discovery using gene regulatory networks generated from multiple-disruption expression libraries” (priority 2001, published 2003).

The test system of test [1] is mitotic spindle structure in yeast. As to the kind of experiment: Pathological and microscopic examination of Griseofulvin treated yeast versus CIK1 disrupted yeast. In kind it is cell-based. An excerpt: CIK1 codes for a protein described in the yeast proteome database (YPD) as a coiled-coil protein of the spindle pole body involved in spindle formation and the congression (nuclear migration) step of karyogamy^(13). Since the action of Griseofulvin is known to affect mitotic spindle formation, which is in agreement with the function of CIK1^(14), we performed a pathological examination of a yeast strain with a disrupted CIK1 gene and yeast affected by Griseofulvin.

Another test relates to CIK1. Put plainly: Boolean network analysis of joint drug response and gene disruption expression matrices (virtual gene). In kind it is cell-based, Saccharomyces cerevisiae. The text has this:
In addition to the Boolean methods for gene disruption experiments reported elsewhere^(11), we created a gene expression matrix E from a set of the drug treatment experiments combined with disruptant expression data. In the case of drug generated perturbation, we created a “virtual” gene to represent the drug affect analogous to a gene disruption. We then were able to use standard disruption matrix algorithms designed for disruption based data.
In YPD, 314 genes were defined as “transcription factors”, and 98 of these have previously been studied for control mechanism. The expression profile data of 552 genes including the genes that are controlled by these 98 “transcription factors” were selected from 5871 profiles. Thus we constructed the gene regulatory network from the expression profile data set based on the values of these 552 genes in 120 gene disruption experiments and 20 drug treatment experiments.
However, the use of gene regulatory network models, combined with the drug perturbation data allows for a hierarchical gene regulatory view of the drug's interaction with genes in the transcriptome. To generate this gene network drug perturbation data, we first created a full genome expression library of 542 single-gene disruption mutants. The 120 array data selected from the library was logically joined with the array matrices generated from the Griseofulvin experiments. […]

The subject of another test is yeast strain BY4741. As to the kind of experiment: Drug response full-genome cDNA microarray gene expression experiments. The test is classed as cell-based, Saccharomyces cerevisiae. Particulars: among 552 genes which differed in expression between drug treated and normal yeast; dosages of 10, 50 and 100 mg in 10 ml of DMF; 0, 15, 30, 45 and 60 minutes. How it is done: The yeast strain used in this study is BY4741. To monitor the gene expression profile, cells were pre-grown at 30° C. in YPD (2% polypeptone, 1% yeast extract and 2% glucose) to mid-exponential phase and were exposed with Griseofulvin by adding it to the medium to the concentrations at 0, 10, 25, 50, and 100 mg/ml. The exposed cells were harvested at 0, 15, 30, 45 and 60 min after addition by Griseofulvin and used for RNA extraction. Total RNAs were extracted by the hot-phenol method.
We measured the quantities of 5871 mRNA species from 20 drug treated strains by cDNA microarray assay. A difference in fluorescent strength between Cy3, Cy5 causes bias of the expression quantity ratio. We normalized the expression quantity ratios of each expression profile. […] The logarithm value of the ratio was used to indicate the standard expression level, therefore we found the logarithm value of ratio and calculated the average and standard deviation of these log values (see table1). The Standard Deviation (SD) of expression levels of all spotted genes from the UME6 (YDR207C) disruptant expression array for which UME6 is defined as a “Global Regulator” in YPD^(33) disruptant was 0.4931, therefore we recognized that there are an unacceptable number of errors in array data whose overall SD was larger than 0.5 and eliminated such experiments from analysis. […]

Test [2] relates to mitotic spindle structure in fungi. Particulars: cited from earlier work.

For the molecule `COC1=CC(=O)C[C@@H](C)[C@]12Oc1c(Cl)c(OC)cc(OC)c1C2=O` [Griseofulvin], the “mitotic spindle structure compared with CIK1 deleted yeast” value in test [1] (microscopic examination) was “very similar changes of the spindle body and surrounding organizational structures”. Also, the lethality to yeast result in test [1] (normal physiological dosage) is “neither the treatment with Griseofulvin at normal physiological dosage nor the disruption of CIK1 are lethal”. Moreover, the “suppression of CIK1 expression” value in the test with CIK1 (among the 8 first-effect genes, across the experiments) is recorded as “strongest suppression effects”. Further, the “genes consistently and significantly suppressed as first effects” value in the test on CIK1 (at each time and drug concentration) is given as 8 genes. Further, in the test on yeast strain BY4741, the “genes downregulated by over a 2 sigma threshold” value came out at 183 genes. Further, the “effect on mitotic spindle structure” value in test [2] is “disrupts mitotic spindle structure in fungi to lead to metaphase arrest”.
